Tested on: human epidermal keratinocytes
Experiment: Wound repair (scratch wound closure) in keratinocyte culture
Type: cell-based
Method: The cells were cultured in a 24-well box (20 to 30 000 cells per well). At confluence, a “wound” was made at the center of the well using an “Essen Woundmaker” (Essen Bioscience, Ann Arbor, USA). After rinsing the wells with PBS to remove detached cells, the optional test agent was applied and illumination was started.
Cell migration was followed by two types of instrumentation, (i) videomicroscopy or (ii) Incucyte (Essen Bioscience): whereby a photo from the culture well is recorded every 30 minutes or every hour over a period of 48 hours.
Healing of wounds was studied by dynamic microscopy using a Nikon Eclipse Ti microscope allowing the taking of pictures at intervals of 30 minutes for 24 hours on primary cultures of human fibroblasts and keratinocytes. In this way, it was possible to assess the level of healing.
Incucyte is a device for visualizing and quantifying cell migration in a CO2 incubator at 37° C. The device is used with the Essen Woundmaker. The equipment was calibrated to produce wounds in cell cultures with high reproducibility. The device featured integrated processing software acquisition and image analysis allowing for quantification of the migration rate of cells.
The setup of this experiment was as described in the Materials and Methods Section herein above. […]

## CCCCCCCCCCCCCCCC(=O)O[C@@H]1C[C@@H](C(=O)O)N(C(=O)CCCCCCCCCCCCCCC)C1 [DPHP, Dipalmitoylhydroxyproline]
DPHP serum in combination with 3-LED lighting, keratinocytes (FIG. 4)
  effect on skin wound repair: positive effect
Serum (0.175 wt. % DPHP) added at 0.05 wt % of medium, with 3 LEDs 520, 660, 780 nm for 15 seconds, instead of 10 hrs
  time to 45% wound closure: 6 h

From patent publication US10953237B2, “Methods of providing skin care using phototherapy” (InDerm, priority 2015, dated 2021)
